Reference: doi:10.1101/2023.11.24.568596v1 (biorxiv, 2023)
Values belong to the compound of their own block, whether it stands above or below them.

How the values were obtained:
Settings in all cases: binder
MAPKAPK2 = MAPKAPK2 (Homo sapiens, UniProt P49137)
MARK3 = MARK3 (Homo sapiens, UniProt P27448)
NEK7 = NEK7 (Homo sapiens, UniProt Q8TDX7)
MARK4 = molecular target: T1, MARK4 (Homo sapiens, UniProt Q96L34)
T1 sequence (Q96L34 1-752): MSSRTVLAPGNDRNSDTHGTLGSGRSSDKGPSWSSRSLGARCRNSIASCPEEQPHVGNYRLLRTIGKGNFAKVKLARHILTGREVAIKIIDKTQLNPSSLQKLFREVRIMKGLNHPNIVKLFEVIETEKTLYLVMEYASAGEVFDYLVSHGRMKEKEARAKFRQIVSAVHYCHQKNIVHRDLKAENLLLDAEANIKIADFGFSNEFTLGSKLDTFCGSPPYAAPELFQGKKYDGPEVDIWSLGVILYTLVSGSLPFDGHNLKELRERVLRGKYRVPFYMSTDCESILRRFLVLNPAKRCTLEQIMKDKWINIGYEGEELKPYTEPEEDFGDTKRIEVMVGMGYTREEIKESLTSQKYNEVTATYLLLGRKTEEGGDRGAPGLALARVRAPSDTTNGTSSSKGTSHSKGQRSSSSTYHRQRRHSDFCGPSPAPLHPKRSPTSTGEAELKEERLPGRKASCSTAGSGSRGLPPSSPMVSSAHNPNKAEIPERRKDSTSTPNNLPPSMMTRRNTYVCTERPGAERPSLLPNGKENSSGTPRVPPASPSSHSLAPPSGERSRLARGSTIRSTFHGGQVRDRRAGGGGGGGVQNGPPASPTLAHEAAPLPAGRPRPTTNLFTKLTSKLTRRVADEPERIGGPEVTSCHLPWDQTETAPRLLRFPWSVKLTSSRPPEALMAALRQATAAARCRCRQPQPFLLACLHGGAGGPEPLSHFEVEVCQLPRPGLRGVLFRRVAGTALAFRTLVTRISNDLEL

GSK3B = GSK3B (Homo sapiens, UniProt P49841)
MELK = MELK (Homo sapiens, UniProt Q14680)
GPRK5 = GPRK5 (Homo sapiens, UniProt P34947)
GAK = molecular target: T2, GAK (Homo sapiens, UniProt O14976)
T2 sequence (O14976 1-1311): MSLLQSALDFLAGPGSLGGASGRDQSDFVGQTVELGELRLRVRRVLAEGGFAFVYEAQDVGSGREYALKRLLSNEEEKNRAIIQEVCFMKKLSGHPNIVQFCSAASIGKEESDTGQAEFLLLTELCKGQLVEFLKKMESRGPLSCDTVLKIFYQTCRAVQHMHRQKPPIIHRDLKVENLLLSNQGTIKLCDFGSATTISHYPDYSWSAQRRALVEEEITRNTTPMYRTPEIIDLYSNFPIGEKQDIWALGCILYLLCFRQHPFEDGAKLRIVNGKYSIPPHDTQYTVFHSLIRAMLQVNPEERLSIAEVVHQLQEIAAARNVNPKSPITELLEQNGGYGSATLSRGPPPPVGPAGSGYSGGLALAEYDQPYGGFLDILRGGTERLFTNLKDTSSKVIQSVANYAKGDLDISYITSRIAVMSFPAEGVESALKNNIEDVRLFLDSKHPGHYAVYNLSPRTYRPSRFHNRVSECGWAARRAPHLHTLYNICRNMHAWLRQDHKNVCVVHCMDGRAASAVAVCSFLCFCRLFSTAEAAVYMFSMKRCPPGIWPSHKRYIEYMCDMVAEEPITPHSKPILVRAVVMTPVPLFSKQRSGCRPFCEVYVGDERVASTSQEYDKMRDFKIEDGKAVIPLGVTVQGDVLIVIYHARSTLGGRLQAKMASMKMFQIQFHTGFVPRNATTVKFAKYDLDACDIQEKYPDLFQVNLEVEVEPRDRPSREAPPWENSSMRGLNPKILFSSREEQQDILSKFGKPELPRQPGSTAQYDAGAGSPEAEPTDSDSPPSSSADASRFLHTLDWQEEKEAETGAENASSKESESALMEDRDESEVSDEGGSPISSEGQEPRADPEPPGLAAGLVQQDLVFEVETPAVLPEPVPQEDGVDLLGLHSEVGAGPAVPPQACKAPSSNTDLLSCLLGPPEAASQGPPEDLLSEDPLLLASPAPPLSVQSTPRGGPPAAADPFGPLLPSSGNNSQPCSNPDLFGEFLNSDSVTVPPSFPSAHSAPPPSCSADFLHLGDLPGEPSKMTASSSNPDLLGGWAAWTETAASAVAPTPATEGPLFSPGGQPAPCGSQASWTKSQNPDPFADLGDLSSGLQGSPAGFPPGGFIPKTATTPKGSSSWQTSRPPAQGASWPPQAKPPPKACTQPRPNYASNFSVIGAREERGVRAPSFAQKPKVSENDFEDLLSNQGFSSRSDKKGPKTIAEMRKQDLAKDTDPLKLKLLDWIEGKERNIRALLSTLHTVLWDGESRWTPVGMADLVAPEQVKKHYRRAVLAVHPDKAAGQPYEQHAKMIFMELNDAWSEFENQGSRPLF

GSK3B, sequence (P49841 whole entry): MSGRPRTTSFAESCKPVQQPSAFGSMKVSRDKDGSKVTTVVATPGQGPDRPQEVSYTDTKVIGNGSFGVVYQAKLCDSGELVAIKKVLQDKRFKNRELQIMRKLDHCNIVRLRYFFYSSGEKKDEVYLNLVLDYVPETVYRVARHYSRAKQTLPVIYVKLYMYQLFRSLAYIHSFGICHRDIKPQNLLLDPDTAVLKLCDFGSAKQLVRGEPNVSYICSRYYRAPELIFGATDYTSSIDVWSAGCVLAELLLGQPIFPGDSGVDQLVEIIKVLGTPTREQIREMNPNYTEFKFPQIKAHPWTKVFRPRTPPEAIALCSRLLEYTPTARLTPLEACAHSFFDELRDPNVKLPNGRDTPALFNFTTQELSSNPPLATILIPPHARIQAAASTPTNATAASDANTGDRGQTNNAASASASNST
MARK3, sequence (P27448 whole entry): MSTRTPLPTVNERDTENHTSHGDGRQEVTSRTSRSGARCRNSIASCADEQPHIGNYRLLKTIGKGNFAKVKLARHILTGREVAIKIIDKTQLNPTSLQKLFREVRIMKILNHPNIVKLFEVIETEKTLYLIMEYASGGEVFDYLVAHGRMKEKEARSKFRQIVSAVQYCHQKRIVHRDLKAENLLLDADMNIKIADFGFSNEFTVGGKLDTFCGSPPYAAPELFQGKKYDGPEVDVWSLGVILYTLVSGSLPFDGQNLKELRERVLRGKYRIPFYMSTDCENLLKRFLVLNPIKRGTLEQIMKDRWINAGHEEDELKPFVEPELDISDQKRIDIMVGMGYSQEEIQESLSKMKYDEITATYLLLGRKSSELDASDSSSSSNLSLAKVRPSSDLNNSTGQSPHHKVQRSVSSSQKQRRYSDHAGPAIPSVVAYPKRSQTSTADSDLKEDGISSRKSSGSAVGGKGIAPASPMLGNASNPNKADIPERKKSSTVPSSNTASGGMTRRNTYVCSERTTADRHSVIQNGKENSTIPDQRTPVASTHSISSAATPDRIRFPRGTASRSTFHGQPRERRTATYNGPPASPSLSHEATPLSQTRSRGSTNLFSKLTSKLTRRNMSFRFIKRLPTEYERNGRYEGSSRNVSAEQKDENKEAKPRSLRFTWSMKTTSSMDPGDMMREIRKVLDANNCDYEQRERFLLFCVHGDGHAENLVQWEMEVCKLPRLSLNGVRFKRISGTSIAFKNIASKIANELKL
NEK7, sequence (Q8TDX7 whole entry): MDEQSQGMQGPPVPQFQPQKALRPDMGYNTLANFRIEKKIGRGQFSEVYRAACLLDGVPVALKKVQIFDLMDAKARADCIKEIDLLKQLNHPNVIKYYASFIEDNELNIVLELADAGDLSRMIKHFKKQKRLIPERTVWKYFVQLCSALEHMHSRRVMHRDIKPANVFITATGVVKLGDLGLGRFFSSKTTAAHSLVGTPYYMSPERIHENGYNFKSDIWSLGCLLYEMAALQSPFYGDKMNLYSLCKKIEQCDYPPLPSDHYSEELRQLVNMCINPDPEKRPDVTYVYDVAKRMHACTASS
MAPKAPK2, sequence (P49137 whole entry): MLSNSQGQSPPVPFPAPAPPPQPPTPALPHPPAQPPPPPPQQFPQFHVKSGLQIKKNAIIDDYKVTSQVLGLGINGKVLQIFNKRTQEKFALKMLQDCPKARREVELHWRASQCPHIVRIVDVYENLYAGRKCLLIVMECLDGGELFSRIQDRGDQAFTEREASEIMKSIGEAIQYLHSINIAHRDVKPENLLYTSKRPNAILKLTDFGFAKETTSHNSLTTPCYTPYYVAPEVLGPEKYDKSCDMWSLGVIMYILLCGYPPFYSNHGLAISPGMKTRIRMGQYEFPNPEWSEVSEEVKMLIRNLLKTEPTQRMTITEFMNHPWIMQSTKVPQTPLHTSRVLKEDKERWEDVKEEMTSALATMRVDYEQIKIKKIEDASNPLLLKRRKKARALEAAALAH
MELK, sequence (Q14680 whole entry): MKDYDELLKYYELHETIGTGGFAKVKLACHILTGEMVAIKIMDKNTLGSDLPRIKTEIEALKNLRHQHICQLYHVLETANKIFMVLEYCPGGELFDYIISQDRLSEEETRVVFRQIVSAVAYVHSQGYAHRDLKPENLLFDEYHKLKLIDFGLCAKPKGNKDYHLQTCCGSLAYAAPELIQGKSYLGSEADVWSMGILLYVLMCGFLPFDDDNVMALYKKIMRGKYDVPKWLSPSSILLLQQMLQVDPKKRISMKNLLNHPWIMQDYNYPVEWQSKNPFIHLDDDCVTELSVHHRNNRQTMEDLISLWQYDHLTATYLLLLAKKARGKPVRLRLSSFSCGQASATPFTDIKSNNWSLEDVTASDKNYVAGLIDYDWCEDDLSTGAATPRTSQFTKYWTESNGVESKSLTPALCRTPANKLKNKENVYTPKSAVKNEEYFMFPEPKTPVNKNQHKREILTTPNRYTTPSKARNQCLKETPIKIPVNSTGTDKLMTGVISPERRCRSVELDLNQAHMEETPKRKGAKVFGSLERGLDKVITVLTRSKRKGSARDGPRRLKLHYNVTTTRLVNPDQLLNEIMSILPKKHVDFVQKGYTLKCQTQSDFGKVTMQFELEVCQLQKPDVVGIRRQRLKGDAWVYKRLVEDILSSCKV
GPRK5, sequence (P34947 whole entry): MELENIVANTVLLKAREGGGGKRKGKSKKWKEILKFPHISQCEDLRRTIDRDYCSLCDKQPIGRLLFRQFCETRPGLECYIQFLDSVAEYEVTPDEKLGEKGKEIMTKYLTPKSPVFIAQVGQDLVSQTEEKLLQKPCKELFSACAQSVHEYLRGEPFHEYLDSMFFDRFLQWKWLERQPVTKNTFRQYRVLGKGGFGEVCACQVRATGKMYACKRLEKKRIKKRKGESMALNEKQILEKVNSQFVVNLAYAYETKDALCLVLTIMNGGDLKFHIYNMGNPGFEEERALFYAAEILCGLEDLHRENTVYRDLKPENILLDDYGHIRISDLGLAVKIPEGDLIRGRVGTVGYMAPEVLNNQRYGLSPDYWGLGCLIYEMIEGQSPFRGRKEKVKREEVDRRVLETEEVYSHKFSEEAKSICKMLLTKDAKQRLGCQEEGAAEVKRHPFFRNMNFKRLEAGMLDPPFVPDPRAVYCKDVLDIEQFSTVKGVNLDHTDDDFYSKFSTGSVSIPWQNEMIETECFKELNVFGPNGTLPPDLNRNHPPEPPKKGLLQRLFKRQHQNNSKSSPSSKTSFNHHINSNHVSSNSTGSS

ΔTm MRLW5 (20) (MAPKAPK2): 0.0 °C | ΔTm MRLW5 (20) (MARK3): 9.3 °C | ΔTm MRLW5 (20) (NEK7): -0.1 °C | ΔTm MRLW5 (20) (MARK4): 8.2 °C | ΔTm MRLW5 (20) (GSK3B): 1.8 °C | ΔTm MRLW5 (20) (MELK): 8.0 °C | ΔTm MRLW5 (20) (GPRK5): 0.5 °C | ΔTm MRLW5 (20) (GAK): 7.7 °C
SMILES: CNc1ncc2cc(-c3ccc(-c4cccc(C)n4)cc3Cl)c(=O)n(CCCCN)c2n1 [compound 20, MRLW5]

ΔTm 22 (MAPKAPK2): -0.1 °C | ΔTm 22 (MARK3): 8.8 °C | ΔTm 22 (NEK7): 0.2 °C | ΔTm 22 (MARK4): 5.8 °C | ΔTm 22 (GSK3B): 1.3 °C | ΔTm 22 (MELK): 8.5 °C | ΔTm 22 (GPRK5): -1.4 °C | ΔTm 22 (GAK): 9.7 °C
SMILES: CNc1ncc2cc(-c3ccc(-c4cccc(C)n4)cc3Cl)c(=O)n(CCC3CCNCC3)c2n1 [compound 22, 6-(2-Chloro-4-(6-methylpyridin-2-yl)phenyl)-2-(methylamino)-8-(2-(piperidin-4-yl)ethyl)pyrido[2,3-d]pyrimidin-7(8H)-one]

ΔTm 23 (MAPKAPK2): -0.9 °C | ΔTm 23 (MARK3): 10.4 °C | ΔTm 23 (NEK7): -0.3 °C | ΔTm 23 (MARK4): 12.7 °C | ΔTm 23 (GSK3B): 1.7 °C | ΔTm 23 (MELK): 10.4 °C | ΔTm 23 (GPRK5): 0.3 °C | ΔTm 23 (GAK): 9.3 °C
SMILES: CNc1ncc2cc(-c3ccc(-c4cccc(C)n4)cc3Cl)c(=O)n(C[C@H]3CC[C@H](N)CC3)c2n1 [compound 23, 23]

ΔTm MR24 (24) (MAPKAPK2): -0.1 °C | ΔTm MR24 (24) (MARK3): 5.8 °C | ΔTm MR24 (24) (NEK7): -0.9 °C | ΔTm MR24 (24) (MARK4): 3.3 °C | ΔTm MR24 (24) (GSK3B): 0.0 °C | ΔTm MR24 (24) (MELK): 5.5 °C | ΔTm MR24 (24) (GPRK5): -1.0 °C | ΔTm MR24 (24) (GAK): 3.9 °C
SMILES: Cc1cccc(-c2ccc(-c3cc4cnc(NC(CO)CO)nc4n(CCCCN)c3=O)c(Cl)c2)n1 [compound 24, 8-(4-Aminobutyl)-6-(2-chloro-4-(6-methylpyridin-2-yl)phenyl)-2-((1,3-dihydroxypropan-2-yl)amino)pyrido[2,3-d]pyrimidin-7(8H)-one]

ΔTm 25 (MAPKAPK2): -0.6 °C | ΔTm 25 (MARK3): 8.6 °C | ΔTm 25 (NEK7): -0.5 °C | ΔTm 25 (MARK4): 5.8 °C | ΔTm 25 (GSK3B): 3.8 °C | ΔTm 25 (MELK): 2.4 °C | ΔTm 25 (GPRK5): 0.6 °C | ΔTm 25 (GAK): 6.9 °C
SMILES: Cc1cccc(-c2ccc(-c3cc4cnc(NCCCc5ccc(N)cc5)nc4n(CCCCN)c3=O)c(Cl)c2)n1 [compound 25, 8-(4-Aminobutyl)-2-((3-(4-aminophenyl)propyl)amino)-6-(2-chloro-4-(6-methylpyridin-2-yl)phenyl)pyrido[2,3-d]pyrimidin-7(8H)-one]

ΔTm MR26 (26) (MAPKAPK2): -0.2 °C | ΔTm MR26 (26) (MARK3): 5.4 °C | ΔTm MR26 (26) (NEK7): -0.7 °C | ΔTm MR26 (26) (MARK4): 3.7 °C | ΔTm MR26 (26) (GSK3B): 0.8 °C | ΔTm MR26 (26) (MELK): 5.0 °C | ΔTm MR26 (26) (GPRK5): -0.5 °C | ΔTm MR26 (26) (GAK): 3.6 °C
SMILES: Cc1cccc(-c2ccc(-c3cc4cnc(NCCCN5CCOCC5)nc4n(CCCCN)c3=O)c(Cl)c2)n1 [compound 26, MR26]
